Data published in patent US12649750B2, “Macrocyclic compounds, compositions, and methods of using thereof” (Sionna Therapeutics Inc., priority 2022, dated 2026).

Experiments:
NBD1 = target: T1, NBD1 (Homo sapiens, UniProt P13569); test: Aggregation analysis using differential static light scattering (DSLS), thermal stability of NBD1 (ΔTagg); format: binding; details: ΔTagg versus DMSO control, NBD1 0.2 mg/ml
T1 construct: Purified recombinant NBD1 was produced using previously described methods; made in house
T1 sequence (P13569 423-646 limits assumed): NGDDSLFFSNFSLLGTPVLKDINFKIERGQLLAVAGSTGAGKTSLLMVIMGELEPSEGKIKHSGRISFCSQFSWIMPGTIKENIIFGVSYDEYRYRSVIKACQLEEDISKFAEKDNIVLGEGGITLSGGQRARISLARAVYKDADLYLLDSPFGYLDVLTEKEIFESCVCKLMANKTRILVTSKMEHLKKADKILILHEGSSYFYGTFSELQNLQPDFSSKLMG
In short: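 Read-out is ΔTagg: the aggregation temperature, taken at the inflection of the light-scattering curve, less the average of DMSO control wells. Recombinant NBD1 (0.2 mg/ml, pH7.6 buffer containing 2 mM ATP) with test compound was heated at 1° C. per minute up to 70° C.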

CFTR = target: T2, CFTR (Homo sapiens, UniProt P13569, DEL508-508); test: TECC24 AUC fold over DMSO @10 μM, CFTR-mediated transepithelial chloride transport in CF-HBE cells; format: cell-based; details: test agent AUC divided by DMSO vehicle AUC, primary CF-HBE cells, ΔF508 homozygous donor, 48 hours incubation
T2 construct: Primary human bronchial epithelial cells from a ΔF508 homozygous CF donor; host or cells: primary human bronchial epithelial cells (CF-HBE), ΔF508 homozygous donor
T2 sequence (P13569 with tags, fused parts or gaps DEL508-508): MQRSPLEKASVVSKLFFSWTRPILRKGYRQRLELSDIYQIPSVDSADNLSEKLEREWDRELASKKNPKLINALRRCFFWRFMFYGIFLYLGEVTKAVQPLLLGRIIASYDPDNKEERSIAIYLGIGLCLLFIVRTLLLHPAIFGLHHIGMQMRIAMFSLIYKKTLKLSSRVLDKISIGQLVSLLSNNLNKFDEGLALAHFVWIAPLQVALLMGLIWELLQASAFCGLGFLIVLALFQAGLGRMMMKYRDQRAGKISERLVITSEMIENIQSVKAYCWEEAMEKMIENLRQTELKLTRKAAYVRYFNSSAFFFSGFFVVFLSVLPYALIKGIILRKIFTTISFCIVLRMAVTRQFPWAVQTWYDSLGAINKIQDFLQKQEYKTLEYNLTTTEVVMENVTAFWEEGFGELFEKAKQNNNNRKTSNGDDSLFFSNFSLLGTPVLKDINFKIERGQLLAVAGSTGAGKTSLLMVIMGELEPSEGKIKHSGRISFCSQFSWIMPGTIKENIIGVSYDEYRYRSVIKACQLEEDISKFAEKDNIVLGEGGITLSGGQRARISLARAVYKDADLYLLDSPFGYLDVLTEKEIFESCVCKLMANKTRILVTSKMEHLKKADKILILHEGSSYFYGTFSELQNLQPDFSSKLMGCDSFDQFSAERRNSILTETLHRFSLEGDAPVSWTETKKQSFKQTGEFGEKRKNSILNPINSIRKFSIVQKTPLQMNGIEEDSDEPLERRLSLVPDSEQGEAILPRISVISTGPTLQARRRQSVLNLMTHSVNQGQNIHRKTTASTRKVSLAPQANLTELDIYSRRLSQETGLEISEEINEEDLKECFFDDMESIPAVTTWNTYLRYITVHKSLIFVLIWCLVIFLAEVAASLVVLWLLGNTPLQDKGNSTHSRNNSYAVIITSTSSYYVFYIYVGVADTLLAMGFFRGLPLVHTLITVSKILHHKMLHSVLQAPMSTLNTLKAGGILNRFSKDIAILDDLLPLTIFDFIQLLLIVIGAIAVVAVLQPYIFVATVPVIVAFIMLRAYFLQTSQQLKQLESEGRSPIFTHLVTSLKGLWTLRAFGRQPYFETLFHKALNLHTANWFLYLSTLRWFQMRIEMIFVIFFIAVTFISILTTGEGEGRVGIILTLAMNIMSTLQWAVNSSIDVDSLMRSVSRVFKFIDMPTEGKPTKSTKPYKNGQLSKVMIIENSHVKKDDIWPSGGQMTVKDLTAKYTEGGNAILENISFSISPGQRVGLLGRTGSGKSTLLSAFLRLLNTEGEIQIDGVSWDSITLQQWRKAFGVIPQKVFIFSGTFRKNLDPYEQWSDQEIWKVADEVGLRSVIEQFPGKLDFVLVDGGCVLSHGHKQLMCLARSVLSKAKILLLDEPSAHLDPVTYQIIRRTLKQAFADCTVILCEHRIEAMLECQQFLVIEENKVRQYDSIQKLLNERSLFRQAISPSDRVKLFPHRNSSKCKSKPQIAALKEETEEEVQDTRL
In short: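 Primary ΔF508-homozygous CF bronchial epithelial cells on inserts were incubated 48 h at 36.5 °C with compound in IL-13-containing medium. VT and TEER were then recorded in current-clamp mode (pH 7.4 HEPES bath) with benzamil 10 μM, forskolin 10 μM, then CFTR inhibitor-172 20 μM. The IEQ AUC between forskolin and inhibitor was divided by vehicle AUC.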

## CC(Cc1cccc(C2(C)CCCC(C)(C)CS(=O)(=O)CCc3c(c(F)cc4[nH]ccc34)S(=O)(=O)c3ccc(F)c(c3)-c3nc2nn3C)c1)C(=O)O (single isomer, unassigned) [Compound 34A, 3-[3-(22,28-difluoro-3,6,10,10-tetramethyl-12,12,24,24-tetraoxo-12lambda6,24lambda6-dithia-3,4,19,30-tetrazapentacyclo[23.3.1.12,5.015,23.016,20]triaconta-1(29),2(30),4,15,17,20,22,25,27-nonaen-6-yl)phenyl]-2-methyl-propanoic Acid]
NBD1
  DSLS 3D (100 μM ΔT): C (a value greater than 10 °C and less than or equal to 25 °C is marked “C”)
CFTR
  TECC (AUC, 10 μM): C (a value between 20 and 80 is marked “C”)

## CC(Cc1cccc(C2(C)CCCC(C)(C)CS(=O)(=O)CCc3c(c(F)cc4[nH]ccc34)S(=O)(=O)c3ccc(F)c(c3)-c3nc2nn3C)c1)C(=O)O (single isomer, unassigned) [Compound 34B, 3-[3-(22,28-difluoro-3,6,10,10-tetramethyl-12,12,24,24-tetraoxo-12lambda6,24lambda6-dithia-3,4,19,30-tetrazapentacyclo[23.3.1.12,5.015,23.016,20]triaconta-1(29),2(30),4,15,17,20,22,25,27-nonaen-6-yl)phenyl]-2-methyl-propanoic Acid]
NBD1
  DSLS 3D (100 μM ΔT): A (an ΔTagg value less than or equal to 5 °C is marked “A”)
CFTR
  TECC (AUC, 10 μM): A (a TECC value less than 12 is marked “A”)

## CC1(C)CCCCC(C)(c2cccc(CCC(=O)O)c2)c2cnc([nH]2)-c2cc(ccc2F)Oc2c(F)cc3[nH]ccc3c2CCS(=O)(=O)C1 (single isomer, unassigned) [Compound 43A, 3-[3-(23,29-difluoro-6,11,11-trimethyl-13,13-dioxo-25-oxa-13lambda6-thia-3,20,31-triazapentacyclo[24.3.1.12,5.016,24.017,21]hentriaconta-1(30),2,4,16,18,21,23,26,28-nonaen-6-yl)phenyl]propanoic Acid]
NBD1
  DSLS 3D (100 μM ΔT): A (an ΔTagg value less than or equal to 5 °C is marked “A”)
CFTR
  TECC (AUC, 10 μM): A (a TECC value less than 12 is marked “A”)

## CC1(c2cccc(CCC(=O)O)c2)CCCC2(CC2)CS(=O)(=O)CCc2c(c(F)cc3[nH]ccc23)Oc2ccc(F)c(c2)-c2ncc1[nH]2 (single isomer, unassigned) [Compound 45A, 3-[3-(22,28-difluoro-6-methyl-12,12-dioxo-spiro [24-oxa-12lambda6-thia-3,19,30-triazapentacyclo[23.3.1.12, 5.015,23.016,20]triaconta-1(29),2,4,15,17,20,22,25,27-nonaene-10,1′-cyclopropane]-6-yl)phenyl]propanoic acid]
NBD1
  DSLS 3D (100 μM ΔT): A (an ΔTagg value less than or equal to 5 °C is marked “A”)
CFTR
  TECC (AUC, 10 μM): A (a TECC value less than 12 is marked “A”)

## CC1(c2cccc(CCC(=O)O)c2)CCCC2(CC2)CS(=O)(=O)CCc2c(c(F)cc3[nH]ccc23)Oc2ccc(F)c(c2)-c2ncc1[nH]2 (single isomer, unassigned) [Compound 45B, 3-[3-(22,28-difluoro-6-methyl-12,12-dioxo-spiro [24-oxa-12lambda6-thia-3,19,30-triazapentacyclo[23.3.1.12, 5.015,23.016,20]triaconta-1(29),2,4,15,17,20,22,25,27-nonaene-10,1′-cyclopropane]-6-yl)phenyl]propanoic acid]
NBD1
  DSLS 3D (100 μM ΔT): C (a value greater than 10 °C and less than or equal to 25 °C is marked “C”)
CFTR
  TECC (AUC, 10 μM): A (a TECC value less than 12 is marked “A”)

## CC1(C)CCCC(C)(c2cccc(OCC(=O)O)c2)c2cnc([nH]2)-c2cc(ccc2F)Oc2c(F)cc3[nH]ccc3c2CCS(=O)(=O)C1 (single isomer, unassigned) [Compound 54A, 2-[3-(22,28-difluoro-6,10,10-trimethyl-12,12-dioxo-24-oxa-12lambda6-thia-3,19,30-triazapentacyclo[23.3.1.12,5.015,23.016,20]triaconta-1(29),2,4,15,17,20,22,25,27-nonaen-6-yl)phenoxy]acetic acid]
NBD1
  DSLS 3D (100 μM ΔT): C (a value greater than 10 °C and less than or equal to 25 °C is marked “C”)
CFTR
  TECC (AUC, 10 μM): C (a value between 20 and 80 is marked “C”)

## CC1(C)CCCC(C)(c2cccc(OCC(=O)O)c2)c2cnc([nH]2)-c2cc(ccc2F)Oc2c(F)cc3[nH]ccc3c2CCS(=O)(=O)C1 (single isomer, unassigned) [Compound 54B, 2-[3-(22,28-difluoro-6,10,10-trimethyl-12,12-dioxo-24-oxa-12lambda6-thia-3,19,30-triazapentacyclo[23.3.1.12,5.015,23.016,20]triaconta-1(29),2,4,15,17,20,22,25,27-nonaen-6-yl)phenoxy]acetic acid]
NBD1
  DSLS 3D (100 μM ΔT): B (a value above 5 °C and less than or equal to 10 °C is marked “B”)
CFTR
  TECC (AUC, 10 μM): A (a TECC value less than 12 is marked “A”)

## Cn1nc2nc1C(C)(c1cccc(CCC(=O)O)c1)CCCC(C)(C)CS(=O)(=O)CCc1c(c(F)cc3[nH]ccc13)Oc1ccc(F)c-2c1 (single isomer, unassigned) [Compound 55A, 3-[3-(22,28-difluoro-4,6,10,10-tetramethyl-12,12-dioxo-24-oxa-12 lambda6-thia-3,4,19,30-tetrazapentacyclo[23.3.1.12,5.015,23.016,20]triaconta-1(29),2,5(30),15,17,20,22,25,27-nonaen-6yl)phenyl]propanoic Acid]
NBD1
  DSLS 3D (100 μM ΔT): C (a value greater than 10 °C and less than or equal to 25 °C is marked “C”)
CFTR
  TECC (AUC, 10 μM): A (a TECC value less than 12 is marked “A”)

## Cn1nc2nc1C(C)(c1cccc(CCC(=O)O)c1)CCCC(C)(C)CS(=O)(=O)CCc1c(c(F)cc3[nH]ccc13)Oc1ccc(F)c-2c1 (single isomer, unassigned) [Compound 55B, 3-[3-(22,28-difluoro-4,6,10,10-tetramethyl-12,12-dioxo-24-oxa-12 lambda6-thia-3,4,19,30-tetrazapentacyclo[23.3.1.12,5.015,23.016,20]triaconta-1(29),2,5(30),15,17,20,22,25,27-nonaen-6yl)phenyl]propanoic Acid]
NBD1
  DSLS 3D (100 μM ΔT): B (a value above 5 °C and less than or equal to 10 °C is marked “B”)
CFTR
  TECC (AUC, 10 μM): A (a TECC value less than 12 is marked “A”)

## CC1(C)CCCC(C)(c2cccc(CCC(=O)O)c2)c2nc(n[nH]2)-c2cc(ccc2F)Oc2c(F)cc3[nH]ccc3c2CCS(=O)(=O)C1 (single isomer, unassigned) [Compound 63A, 3-[3-(22,28-difluoro-6,10,10-trimethyl-12,12-dioxo-24-oxa-12λ6-thia-3,4,19,30-tetrazapentacyclo[23.3.1.12,5.015,23.016,20]triaconta-1(29),2,5(30),15,17,20,22,25,27-nonaen-6-yl)phenyl]propanoic Acid]
NBD1
  DSLS 3D (100 μM ΔT): B (a value above 5 °C and less than or equal to 10 °C is marked “B”)
CFTR
  TECC (AUC, 10 μM): C (a value between 20 and 80 is marked “C”)

## CC1(C)CCCC(C)(c2cccc(CCC(=O)O)c2)c2nc(n[nH]2)-c2cc(ccc2F)Oc2c(F)cc3[nH]ccc3c2CCS(=O)(=O)C1 (single isomer, unassigned) [Compound 63B, 3-[3-(22,28-difluoro-6,10,10-trimethyl-12,12-dioxo-24-oxa-12λ6-thia-3,4,19,30-tetrazapentacyclo[23.3.1.12,5.015,23.016,20]triaconta-1(29),2,5(30),15,17,20,22,25,27-nonaen-6-yl)phenyl]propanoic Acid]
NBD1
  DSLS 3D (100 μM ΔT): C (a value greater than 10 °C and less than or equal to 25 °C is marked “C”)
CFTR
  TECC (AUC, 10 μM): C (a value between 20 and 80 is marked “C”)

## Cc1cnn2c1-c1cc(ccc1F)Oc1c(F)cc3[nH]ccc3c1CCS(=O)(=O)CC(C)(C)CCCC2c1cccc(CCC(=O)O)c1 (single isomer, unassigned) [Compound 65A, 3-[3-(23,29-Difluoro-3,11,11-trimethyl-13,13-dioxo-25-oxa-13λ6-thia-5,6,20-triazapentacyclo[24.3.1.02,6.016,24.017,21]triaconta-1(30),2,4,16,18,21,23,26,28-nonaen-7-yl)phenyl]propanoic acid]
NBD1
  DSLS 3D (100 μM ΔT): B (a value above 5 °C and less than or equal to 10 °C is marked “B”)
CFTR
  TECC (AUC, 10 μM): A (a TECC value less than 12 is marked “A”)

## Cc1cnn2c1-c1cc(ccc1F)Oc1c(F)cc3[nH]ccc3c1CCS(=O)(=O)CC(C)(C)CCCC2c1cccc(CCC(=O)O)c1 (single isomer, unassigned) [Compound 65B, 3-[3-(23,29-Difluoro-3,11,11-trimethyl-13,13-dioxo-25-oxa-13λ6-thia-5,6,20-triazapentacyclo[24.3.1.02,6.016,24.017,21]triaconta-1(30),2,4,16,18,21,23,26,28-nonaen-7-yl)phenyl]propanoic acid]
NBD1
  DSLS 3D (100 μM ΔT): C (a value greater than 10 °C and less than or equal to 25 °C is marked “C”)
CFTR
  TECC (AUC, 10 μM): A (a TECC value less than 12 is marked “A”)
